In the assay the test system is rats. Kind of assay: Ugo Basile Tail Flick method (Example 2). In kind it is in vivo. As to conditions: for Tail Flick Time (seconds) after administration: individual rats 1-7; for Tail Flick Time (seconds) after administration, Mean: mean of 7 rats; for Tail Flick Time (seconds) after administration, Median: median of 7 rats. The protocol:
The addition of quinidine to a pharmaceutical composition of morphine, and dextromethorphan was tested using Ugo Basile Tail Flick method. This method is often used for in vivo screening of multiple drugs with analgesic activity. The animal was placed and held on the Ugo Basile Tail Flick instrument surface with the tail straight back and across an infrared light source. The heat source and timer are turned on by a foot pedal press, and automatically switch off when the animal flicks its tail off the emitter. Latency time is measured and analyzed as an analgesic effect. Each preparation was tested in 7 rats.
For orientation: Thermal pain tests record how soon the animal reacts.

Structures are written as SMILES. Values joined by “and” are separate entries in the source; they are usually repeats but may differ in a detail not shown here. Identical values can stand only once.

With `COc1ccc2c(c1)[C@]13CCCC[C@@H]1[C@H](C2)N(C)CC3` [Dextromethorphan], the “Tail Flick Time (seconds) after administration” value reads like this: (1 h after administration) 4.10 s and 3.90 s and 3.30 s and 4.80 s and 5.60 s and 3.70 s and 7.30 s; (3 h after administration) 3.90 seconds and 4.60 seconds (2×) and 4.50 seconds and 5.40 seconds and 3.30 seconds and 8.70 seconds; (5 h after administration) 4.60 seconds and 6.40 seconds (2×) and 2.90 seconds and 5.10 seconds and 4.10 seconds and 4.50 seconds; (8 h after administration) 5.40 s and 5.10 s and 3.70 s and 7.30 s and 4.30 s and 3.80 s and 3.60 s; (10 h after administration) 3.10 seconds and 5.50 seconds and 4.30 seconds and 4.80 seconds (2×) and 3.90 seconds and 6.60 seconds; (14 h after administration) 3.90 seconds (2×) and 5.20 seconds and 5.60 seconds and 3.80 seconds and 5.10 seconds and 4.10 seconds. Further, the “Tail Flick Time (seconds) after administration” value (24 h after administration) is 3.50 seconds (2×) and 4.70 seconds and 4.30 seconds and 5.20 seconds and 3.70 seconds and 3.10 seconds. The “Tail Flick Time (seconds) after administration, Mean” value (“Tail Flick Time (seconds) … Mean” below) reads like this: (1 h after administration) 4.67 s; (3 h after administration) 5.00 s; (5 h after administration) 4.86 s; (8 h after administration) 4.74 s; (10 h after administration) 4.71 s; (14 h after administration) 4.51 s. Besides, for the setting “24 h after administration”, the “Tail Flick Time (seconds) … Mean” value came to 4.00 s. The “Tail Flick Time (seconds) after administration, Median” value (shortened to “Tail Flick Time (seconds) … Median”) stood at 4.10 s (1 h after administration); 4.60 s (3 h after administration); 4.60 s (5 h after administration); 4.30 s (8 h after administration); 4.80 s (10 h after administration); 4.10 s (14 h after administration). Besides, the “Tail Flick Time (seconds) … Median” value (24 h after administration) is 3.70 s.
With `CN1CC[C@]23c4c5ccc(O)c4O[C@H]2[C@@H](O)C=C[C@H]3[C@H]1C5` [Morphine], the “Tail Flick Time (seconds) after administration” value was 5.80 s and 5.10 s and 6.50 s and 30.10 s and 6.80 s and 10.50 s and 3.70 s (1 h after administration); 6.30 s and 7.60 s and 2.70 s and 9.50 s and 5.30 s and 5.90 s and 4.80 s (3 h after administration); 4.80 seconds and 6.60 seconds and 5.90 seconds and 10.90 seconds and 4.90 seconds and 4.60 seconds (2×) (5 h after administration); 6.90 s and 10.50 s and 8.30 s and 8.50 s and 6.70 s and 6.30 s and 3.50 s (8 h after administration); 4.70 s and 4.10 s and 4.80 s and 6.50 s and 6.20 s and 4.20 s and 2.90 s (10 h after administration); 3.50 seconds and 7.50 seconds and 5.10 seconds (2×) and 7.80 seconds and 2.90 seconds and 4.10 seconds (14 h after administration). The “Tail Flick Time (seconds) after administration” value (24 h after administration) is 4.80 seconds (2×) and 7.60 seconds and 4.30 seconds and 3.40 seconds and 4.90 seconds and 6.10 seconds. Also, the “Tail Flick Time (seconds) … Mean” value by setting is: (1 h after administration) 9.79 s; (3 h after administration) 6.01 s; (5 h after administration) 6.04 s; (8 h after administration) 7.24 s; (10 h after administration) 4.77 s; (14 h after administration) 5.14 s. The “Tail Flick Time (seconds) … Mean” value (24 h after administration) was 5.13 s. Besides, the “Tail Flick Time (seconds) … Median” value was found to be 6.50 s (1 h after administration); 6.5 s (1 h after administration, listed as morphine); 5.90 s (3 h after administration); 4.90 s (5 h after administration); 6.90 s (8 h after administration); 4.70 s (10 h after administration). The “Tail Flick Time (seconds) … Median” value is 5.10 s (14 h after administration) and 4.80 s (24 h after administration).

These data come from patent US20200316056A1, “Pain Medicine Combination and Uses Thereof” (Mindlab, LLC, priority 2013, published 2020).
